The text below walks through data of article PMC6355875 (Scientific Reports, 2019).

Holding throughout (assay type): cell-based
For one test, the target named is T1, hPPAR-α (Homo sapiens, UniProt Q07869).
T1 construct: expressed in transfected cells; host or cells: HEK293T
T1 sequence (Q07869 175-468): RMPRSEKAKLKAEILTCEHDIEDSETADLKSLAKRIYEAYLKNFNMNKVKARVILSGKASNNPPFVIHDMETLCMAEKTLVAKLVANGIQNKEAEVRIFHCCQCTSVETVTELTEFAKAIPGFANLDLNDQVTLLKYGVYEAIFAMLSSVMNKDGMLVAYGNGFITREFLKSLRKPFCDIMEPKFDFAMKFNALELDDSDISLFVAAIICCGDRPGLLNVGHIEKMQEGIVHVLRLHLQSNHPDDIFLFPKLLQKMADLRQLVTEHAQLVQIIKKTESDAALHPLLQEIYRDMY
The test can be described thus: GAL4-DBD hPPARα/LBD luciferase reporter assay in HEK293T cells. The note with it: activation, overnight. On the procedure: (§1) A GAL4-DNA Binding Domain (GAL4-DBD) fusion protein was constructed for each PPAR family member. To assess compound activity, each construct was co-transfected into HEK293T cells (American Type Culture Collection; Manassass, VA) along with the reporter construct, pGL5 (Promega) using Fugene 6 (Promega) as a transfection reagent and the manufacturer’s protocol. An eleven point dilution series of each compound was added to the cells and incubated overnight. Luciferase levels were then determined following the addition of Bright-Glo (Promega) using the manufacturer’s recommendations.
In general terms: Reporter assays use an easily measured gene product as a stand-in for the process of interest.

In the next test the target is T2, hPPAR-γ (Homo sapiens, UniProt P37231).
T2 construct: expressed in transfected cells; host or cells: HEK293T
T2 sequence (P37231 184-477 isoform P37231-2): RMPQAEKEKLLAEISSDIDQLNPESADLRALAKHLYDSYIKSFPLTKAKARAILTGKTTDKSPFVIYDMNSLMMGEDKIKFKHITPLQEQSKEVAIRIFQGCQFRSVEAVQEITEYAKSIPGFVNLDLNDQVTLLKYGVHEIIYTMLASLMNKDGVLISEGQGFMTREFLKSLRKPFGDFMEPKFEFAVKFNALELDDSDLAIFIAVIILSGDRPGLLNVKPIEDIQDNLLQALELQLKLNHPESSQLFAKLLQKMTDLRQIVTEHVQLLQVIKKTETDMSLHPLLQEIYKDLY
The test is described as follows: GAL4-DBD hPPARγ/LBD luciferase reporter assay in HEK293T cells. Particulars: activation, overnight. On the procedure:
as §1

The target of the next test is T3, hPPAR-δ (Homo sapiens, UniProt Q03181).
T3 construct: expressed in transfected cells; host or cells: HEK293T
T3 sequence (Q03181 147-441): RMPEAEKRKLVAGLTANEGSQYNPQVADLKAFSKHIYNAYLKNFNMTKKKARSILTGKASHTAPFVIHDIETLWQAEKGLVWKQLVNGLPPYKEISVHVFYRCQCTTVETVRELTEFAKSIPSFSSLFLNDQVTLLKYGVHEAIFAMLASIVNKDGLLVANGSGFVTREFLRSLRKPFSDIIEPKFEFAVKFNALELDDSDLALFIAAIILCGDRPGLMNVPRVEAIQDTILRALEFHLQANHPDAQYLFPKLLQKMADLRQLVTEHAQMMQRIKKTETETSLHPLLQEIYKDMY
The test can be described thus: GAL4-DBD hPPARδ/LBD luciferase reporter assay in HEK293T cells. The note with it: for EC50: activation, HEK293T reporter, overnight; for hPPAR subtype profile: from EC50 on hPPAR-δ, -α, -γ. On the procedure: as §1

For orientation: EC50 means the concentration that produces a half-maximal response. A low value points to an effect from little substance. For `O=C(O)Cc1csc(SCc2cc(F)cc3c2OC(c2ccccc2)OC3)n1` (centres unmarked) [GNF-1051, OC(=O)CC1=CSC(SCC2=CC(F)=CC3=C2OC(OC3)C2=CC=CC=C2)=N1], the EC50 on hPPAR-α is 7.33 µM; on hPPAR-γ, > 10 µM; at hPPAR-δ, 7.76 µM.

Consider `O=C(Nc1cccc(CNCC(c2cccs2)N2CCOCC2)c1)c1ccc(Cl)cc1` (centres unmarked) [GNF-6029, ClC1=CC=C(C=C1)C(=O)NC1=CC=CC(CNCC(N2CCOCC2)C2=CC=CS2)=C1], for which the EC50 at hPPAR-α is > 10 µM; at hPPAR-γ, > 10 µM; at hPPAR-δ it was 0.012 µM.

For `CCOc1cccc(/C=N/c2cccc(-c3csc(/N=C/c4cccc(OCC)c4O)n3)c2)c1O` [GNF-6878, CCOC1=CC=CC(C=NC2=NC(=CS2)C2=CC=CC(=C2)N=CC2=CC=CC(OCC)=C2O)=C1O], the EC50 on hPPAR-α was > 10 µM; at hPPAR-γ, > 10 µM; at hPPAR-δ, 0.008 µM.

Take `O=C(OCC(=O)c1ccc(O)cc1O)c1ccc(COc2ccc3ccccc3c2)o1` [GNF-6928, OC1=CC=C(C(=O)COC(=O)C2=CC=C(COC3=CC=C4C=CC=CC4=C3)O2)C(O)=C1]: the half-maximal effective concentration (EC50) at hPPAR-α was determined as 6.9 µM; on hPPAR-γ, 3.78 µM; at hPPAR-δ it was 3.7 µM.

As for `COc1ccc(N2CCN(C(=O)CSc3nnc(COc4ccc(Cl)cc4C)[nH]3)CC2)cc1` [GNF-7486, COC1=CC=C(C=C1)N1CCN(CC1)C(=O)CSC1=NN=C(COC2=CC=C(Cl)C=C2C)N1], the EC50 on hPPAR-α was > 10 µM; on hPPAR-γ, > 10 µM; at hPPAR-δ, 0.018 µM.

With `O=C(CN1CCN(c2ccc(O)cc2)CC1)NCC1(N2CCOCC2)CCCCC1` [GNF-8501, OC1=CC=C(C=C1)N1CCN(CC(=O)NCC2(CCCCC2)N2CCOCC2)CC1], the figures for the EC50 on hPPAR-α, at hPPAR-γ and on hPPAR-δ were > 10 µM, > 10 µM and 0.006 µM, respectively.

Turning to `Cc1ccc(C(=O)Nc2cccc(CNCc3ccc(OC(F)(F)F)cc3)c2)cc1` [GNF-0341, CC1=CC=C(C=C1)C(=O)NC1=CC=CC(CNCC2=CC=C(OC(F)(F)F)C=C2)=C1], the values for the concentration giving a half-maximal response (EC50) on hPPAR-α, at hPPAR-γ and on hPPAR-δ were > 10 µM, 1.26 µM and 0.011 µM, respectively. In addition, the “hPPAR subtype profile” value at hPPAR-δ was “agonists of hPPAR-δ and hPPAR-γ only”.

In the case of `COc1ccc(C(=O)/C=C/c2c(C)nn(-c3ccccc3)c2Cl)cc1CSCC(=O)O` [GNF-4909, COC1=CC=C(C=C1CSCC(O)=O)C(=O)C=CC1=C(Cl)N(N=C1C)C1=CC=CC=C1], the EC50 turned out to be 0.825 µM on hPPAR-α, 1.83 µM on hPPAR-γ and 8.24 µM on hPPAR-δ.

With `O=C(Nc1ccccc1O)C1CCN(C(=O)COc2ccc(F)cc2)CC1` [GNF-5891, OC1=CC=CC=C1NC(=O)C1CCN(CC1)C(=O)COC1=CC=C(F)C=C1], the 50% effective concentration (EC50) at hPPAR-α was > 10 µM; at hPPAR-γ, 7.28 µM; on hPPAR-δ, 0.013 µM.

Turning to `O=C(NCCCCOc1ccc(F)cc1)c1ccc([N+](=O)[O-])c(O)c1` [GNF-7176, OC1=CC(=CC=C1[N+]([O-])=O)C(=O)NCCCCOC1=CC=C(F)C=C1], the concentration for a half-maximal effect (EC50) on hPPAR-α is > 10 µM; at hPPAR-γ it was > 10 µM; on hPPAR-δ it was 7.24 µM.

Regarding `COc1cc(CNCc2cc(C)on2)ccc1OCC(=O)Nc1ccc(Br)cc1` [GNF-6952, COC1=CC(CNCC2=NOC(C)=C2)=CC=C1OCC(=O)NC1=CC=C(Br)C=C1], the EC50 on hPPAR-α was 7.56 µM; on hPPAR-γ, > 10 µM; at hPPAR-δ it was 0.019 µM. The “hPPAR subtype profile” value on hPPAR-δ is “agonists of hPPAR-δ and hPPAR-α only”.

As for `COc1cc(/C=C2/S/C(=N/c3ccccc3)NC2=O)ccc1OCc1cccc(C(=O)O)c1` [GNF-5758, COC1=CC(C=C2SC(NC2=O)=NC2=CC=CC=C2)=CC=C1OCC1=CC=CC(=C1)C(O)=O], the concentration giving a half-maximal response (EC50) on hPPAR-α worked out at 6.93 µM; on hPPAR-γ, 9.73 µM; on hPPAR-δ it was 4.33 µM.

Consider `O=C(NCc1ccc(COCC(F)(F)F)cc1)c1cc(-c2ccccc2)[nH]n1` [GNF-3632, FC(F)(F)COCC1=CC=C(CNC(=O)C2=NNC(=C2)C2=CC=CC=C2)C=C1], for which the results for the EC50 at hPPAR-α, at hPPAR-γ and at hPPAR-δ were 5.48 µM, > 10 µM and 0.007 µM, respectively. For the same compound, on hPPAR-δ, the “hPPAR subtype profile” value was “agonists of hPPAR-δ and hPPAR-α only”.

For the compound `Cc1cc(C(=O)COC(=O)c2ccc(O)cc2O)c(C)n1Cc1ccc(F)cc1` [GNF-9969, CC1=CC(C(=O)COC(=O)C2=CC=C(O)C=C2O)=C(C)N1CC1=CC=C(F)C=C1], the EC50 at hPPAR-α is 6.94 µM; on hPPAR-γ it was 1.01 µM; at hPPAR-δ, 9.48 µM.

As for `COCCCn1c(SCc2cccc(C(=O)O)c2)nc2sc3c(c2c1=O)CCCS3` [GNF-5154, COCCCN1C(=O)C2=C(SC3=C2CCCS3)N=C1SCC1=CC=CC(=C1)C(O)=O], at hPPAR-δ, the midpoint of the response, the EC50, lay at 7.04 µM.

`Cc1ccc(-c2nc(SCCCC(=O)N3CCOCC3)[nH]c2-c2ccc(C)cc2)cc1` [GNF-9820, CC1=CC=C(C=C1)C1=C(N=C(N1)SCCCC(=O)N1CCOCC1)C1=CC=C(C)C=C1]: the concentration for a half-maximal effect (EC50) is > 10 µM at hPPAR-α, > 10 µM at hPPAR-γ and 0.012 µM at hPPAR-δ.

Consider `CCCOc1c(/C=C/C(=O)c2ccc(SCC(=O)O)c(OC)c2)cccc1OCC` [GNF-1676, CCCOC1=C(OCC)C=CC=C1C=CC(=O)C1=CC=C(SCC(O)=O)C(OC)=C1], for which the 50% effective concentration (EC50) on hPPAR-α worked out at 6.19 µM; on hPPAR-γ it was 1.29 µM; at hPPAR-δ, 8.39 µM.

On to `O=C(COc1ccc(C(=O)O)cc1)NC(c1ccccc1)c1ccc(Cl)cc1` (centres unmarked) [GNF-0248, OC(=O)C1=CC=C(OCC(=O)NC(C2=CC=CC=C2)C2=CC=C(Cl)C=C2)C=C1], for which the values for the EC50 on hPPAR-α, at hPPAR-γ and on hPPAR-δ were 7.04 µM, > 10 µM and 7.55 µM, respectively.

Regarding `Cc1cccc(OCCNC(=O)COc2ccc(CC(=O)O)cc2)c1` [GNF-0242, CC1=CC=CC(OCCNC(=O)COC2=CC=C(CC(O)=O)C=C2)=C1], the EC50 on hPPAR-α and on hPPAR-γ was > 10 µM in each case.

In the case of `O=C(Nc1ccccc1O)C1CCN(C(=O)c2ccc(OCC3CCCO3)cc2)CC1` (centres unmarked) [GNF-9448, OC1=CC=CC=C1NC(=O)C1CCN(CC1)C(=O)C1=CC=C(OCC2CCCO2)C=C1], the values for the EC50 on hPPAR-α, on hPPAR-γ and on hPPAR-δ were 7.06 µM, 0.937 µM and 0.883 µM, respectively.

Consider `COc1ccc(CNCc2ccc(Oc3cccnc3)c(F)c2)cc1O` [GNF-8065, COC1=CC=C(CNCC2=CC=C(OC3=CC=CN=C3)C(F)=C2)C=C1O], for which the EC50 on hPPAR-α and at hPPAR-γ was > 10 µM throughout.

For the compound `CCOc1cc(/C=C/C(=O)O)ccc1OCc1ccc(C(C)(C)C)cc1` [GNF-4516, CCOC1=CC(C=CC(O)=O)=CC=C1OCC1=CC=C(C=C1)C(C)(C)C], the EC50 was 2.33 µM at hPPAR-α, > 10 µM on hPPAR-γ and 6.82 µM at hPPAR-δ.

With `Cc1cc(C(=O)COc2ccc(C(=O)O)cc2)c(C)n1CCC1=CCCCC1` [GNF-9057, CC1=CC(C(=O)COC2=CC=C(C=C2)C(O)=O)=C(C)N1CCC1=CCCCC1], the values for the concentration for a half-maximal effect (EC50) on hPPAR-α, at hPPAR-γ and at hPPAR-δ were 4.63 µM, 8.59 µM and 7.49 µM, respectively.

Turning to `O=[N+]([O-])c1cc(S(=O)(=O)N2CCCC2)ccc1OCC(O)CNCc1ccc(F)cc1` (centres unmarked) [GNF-9594, OC(CNCC1=CC=C(F)C=C1)COC1=CC=C(C=C1[N+]([O-])=O)S(=O)(=O)N1CCCC1], the EC50 on hPPAR-α was > 10 µM; on hPPAR-γ it was > 10 µM; on hPPAR-δ, 4.6 µM.

On to `CC(C(=O)Nc1ccc(SC(F)F)cc1)N1CC=C(c2ccc(O)cc2)CC1` (centres unmarked) [GNF-8208, CC(N1CCC(=CC1)C1=CC=C(O)C=C1)C(=O)NC1=CC=C(SC(F)F)C=C1], for which the EC50 was > 10 µM on hPPAR-α, > 10 µM on hPPAR-γ and 7.86 µM at hPPAR-δ.
